In patent US20110173718A1, “HERBICIDE TOLERANT PLANTS” (SYNGENTA CROP PROTECTION, INC., priority 2008, published 2011):

Experiments:
Arabidopsis HST = target: T1, Arabidopsis HST (Arabidopsis thaliana, UniProt Q1ACB3); assay: HST total extraction (non TLC) assay, recombinant Arabidopsis HST from insect cells; format: biochemical
T1 construct: GST (factor Xa cleavage site) (N); made in house; host or cells: Sf9 insect cells (baculovirus, pAcG3X), membrane fraction
T1 sequence (Q1ACB3 70-386): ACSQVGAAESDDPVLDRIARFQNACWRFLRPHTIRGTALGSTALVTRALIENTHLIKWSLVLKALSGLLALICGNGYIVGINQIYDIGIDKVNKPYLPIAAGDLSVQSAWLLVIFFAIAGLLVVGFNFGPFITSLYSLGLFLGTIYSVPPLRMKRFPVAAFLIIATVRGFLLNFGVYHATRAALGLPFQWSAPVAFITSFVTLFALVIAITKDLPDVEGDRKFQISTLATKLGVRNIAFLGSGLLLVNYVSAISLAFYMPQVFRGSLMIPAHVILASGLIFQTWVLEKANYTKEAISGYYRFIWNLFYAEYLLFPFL

weeds [1] = assay: Glasshouse weed control, HST inhibitors alone and with A22, post-emergence; format: in vivo; settings: 336 h, 14 DAT, single replicate, read-out: % control score, Obs; for pest or weed control at 15.625 g/ha: 15.625 g/ha alone; for pest or weed control at 62.5 g/ha: 62.5 g/ha alone; for pest or weed control at 250 g/ha: 250 g/ha alone
Protocol: (§1) In a further test, the results of which are depicted in tables 18 and 19, weed seeds are planted out in trays containing 50% peat/50% John Innes no. 3 soil and grown in the glass house at 24-27 C day; 18-21 C night and approximately a 15 h photoperiod. Humidity is ˜65% and light levels at bench level are up to 2 mmol/m^2. Again all spray chemicals are dissolved in 0.2% X77 surfactant and sprayed from a boom on a track sprayer moving at 2 mph with the nozzle set about 2 inches above the plant tops. The spray volume is […]. Sprays are carried out both pre-emergence and post-emergence over small plants at about 7-12 d post-emergence. Plants are assessed at 14 DAT with herbicidal damage scored on a scale from 0 to 100%. The HPPD inhibiting herbicide is compound A22 (4-hydroxy-3-[[2-(2-methoxyethoxy)methyl]-6-(trifluoromethyl)-3-pyridinylicarbonyl]-bicyclo[3.2.1]oct-3-en-2-one) which is sprayed at 2 g/ha both alone and in mixture with various HST herbicides. Results and spray rates are depicted in Tables 18 and 19. Again the Colby formula has been used to calculate synergy scores observed following treatment with the mixture based on the results obtained with the single components alone. Positive synergy is observed between the HPPD herbicide and a wide variety of HST inhibitor herbicides applied both pre and postemergence across a variety of weeds.

weeds [2] = assay: Glasshouse weed control, HST inhibitors alone and with A22, pre-emergence; format: in vivo; settings: 336 h, 14 DAT; for pest or weed control at 15.625 g/ha: HST inhibitor rate 15.625 g/ha; for pest or weed control at 62.5 g/ha: HST inhibitor rate 62.5 g/ha; for pest or weed control at 250 g/ha: HST inhibitor rate 250 g/ha
Protocol: as §1

[3] = BRAPL, read-out: BRAPL Obs, % control score
[4] = PANMI, read-out: PANMI Obs, % control score
[5] = SIDSP, read-out: SIDSP Obs, % control score
[6] = Digitaria sanguinalis, DIGSA, read-out: DIGSA Obs, % control score
[7] = Echinochloa crus-galli, ECHCG, read-out: ECHCG Obs, % control score
[8] = Setaria faberi, SETFA, read-out: SETFA Obs, % control score

Question: What does the source list for `O=c1c(-c2c(Cl)cccc2C(F)(F)F)c(O)c2nccnc2n1CC(F)F` [Compound 2.20]?
Answer: Estimated IC50 (ppm) (Arabidopsis HST): 16 ppm; pest or weed control at 15.625 g/ha (weeds [1]; BRAPL): 30%; pest or weed control at 62.5 g/ha (weeds [1]; BRAPL): 50%; pest or weed control at 250 g/ha (weeds [1]; BRAPL): 95%; pest or weed control at 15.625 g/ha (weeds [1]; PANMI): 15%; pest or weed control at 62.5 g/ha (weeds [1]; PANMI): 45%; pest or weed control at 250 g/ha (weeds [1]; PANMI): 85%; pest or weed control at 15.625 g/ha (weeds [1]; SIDSP): 10%; pest or weed control at 62.5 g/ha (weeds [1]; SIDSP): 50%; pest or weed control at 250 g/ha (weeds [1]; SIDSP): 55%; pest or weed control at 15.625 g/ha (weeds [1]; Digitaria sanguinalis, DIGSA): 20%; pest or weed control at 62.5 g/ha (weeds [1]; Digitaria sanguinalis, DIGSA): 60%; pest or weed control at 250 g/ha (weeds [1]; Digitaria sanguinalis, DIGSA): 80%; pest or weed control at 15.625 g/ha (weeds [1]; Echinochloa crus-galli, ECHCG): 20%; pest or weed control at 62.5 g/ha (weeds [1]; Echinochloa crus-galli, ECHCG): 60%; pest or weed control at 250 g/ha (weeds [1]; Echinochloa crus-galli, ECHCG): 90%; pest or weed control at 15.625 g/ha (weeds [1]; Setaria faberi, SETFA): 25%; pest or weed control at 62.5 g/ha (weeds [1]; Setaria faberi, SETFA): 65%; pest or weed control at 250 g/ha (weeds [1]; Setaria faberi, SETFA): 80%; pest or weed control at 15.625 g/ha (weeds [2]; [3]): 0%; pest or weed control at 62.5 g/ha (weeds [2]; [3]): 10%; pest or weed control at 250 g/ha (weeds [2]; [3]): 60%; pest or weed control at 15.625 g/ha (weeds [2]; [4]): 0%; pest or weed control at 62.5 g/ha (weeds [2]; [4]): 2%; pest or weed control at 250 g/ha (weeds [2]; [4]): 30%; pest or weed control at 15.625 g/ha (weeds [2]; [5]): 0%; pest or weed control at 62.5 g/ha (weeds [2]; [5]): 0%; pest or weed control at 250 g/ha (weeds [2]; [5]): 5%; pest or weed control at 15.625 g/ha (weeds [2]; [6]): 0%; pest or weed control at 62.5 g/ha (weeds [2]; [6]): 0%; pest or weed control at 250 g/ha (weeds [2]; [6]): 20%; pest or weed control at 15.625 g/ha (weeds [2]; [7]): 1%; pest or weed control at 62.5 g/ha (weeds [2]; [7]): 15%; pest or weed control at 250 g/ha (weeds [2]; [7]): 90%; pest or weed control at 15.625 g/ha (weeds [2]; [8]): 0%; pest or weed control at 62.5 g/ha (weeds [2]; [8]): 20%; pest or weed control at 250 g/ha (weeds [2]; [8]): 65%
